Measured values from patent US8685726B2, “Small molecules supporting pluripotent cell growth and methods thereof” (Viacyte, Inc., priority 2009, dated 2014).

How the values were obtained:
[1] = test system: CyT49 cells; assay: Suspension aggregate culture, cell counts and aggregate diameters; format: cell-based, human; conditions: for serial passages maintained in suspension with undifferentiated morphology: suspension culture, 50 μM
Description: FIG. 10. Effects of NE and ACh in suspension culture of hES cell. (A) 5×10^6 CyT49 cells were seeded in 5 ml StemPro® hESC SFM containing heregulin, LR3-IGF1, Activin and the indicated neurotransmitters at 50 μM in low-attachment 6-well trays and placed at 100 rpm. Undifferentiated suspension aggregates were imaged on day 4. (B) 24 hours after seeding, two wells from each condition were harvested and counted to determine the number of viable cells. (C) Cell counts of each condition when the cultures were split on day 4. (D) The images in (A) were used to determine aggregate diameters using the ImagePro software measurement tool. Average diameters and standard deviations from 50-100 aggregates from each condition are shown. (E) Passage 1 cell counting data. 5×10^6 CyT49 hES cells from p0 cells in (A) were seeded into the same conditions. The aggregates in the condition containing Y27632 were larger and had to be passaged 3 days after seeding, before the centers of the largest aggregates became necrotic. Conversely, the other conditions could be cultured for 6 days before passaging, resulting in higher cell counts.
FIG. 11. Suspension hES cell cultured with NE, […] remain undifferentiated. CyT49 cells were grown as suspension aggregates in the presence of NE, […] for 16 passages without differentiating morphologically. After p10, some cells were re-plated to adherent culture and examined by karyotyping and immunofluorescent staining for OCT4 and Tra-1-61. All cultures remained undifferentiated and expressed these pluripotency markers uniformly. (SP) StemPro® SFM HIA, NE (+NE at 50 μM), ACh (+ACh at 50 μM), NE/ACh (+NE/ACh at 50 μM). Karyotype data is shown to the right. […] Cultures containing ACh were aneuploid.
Small molecule ligands that support survival or self-renewal at low cell densities could also be expected to have beneficial effects in other culture formats. Applicants have previously developed a suspension culture system for hES cells that enables serial propagation of cells and effective expansion of cultures. Human ES cells, at least BG02 and CyT49 cells, have been maintained in suspension for greater than 10 passages without differentiation. The basis of the technique is to dissociate cultures to single cells with reagents that preserve high viability, such as Accutase™, TrypLE or cell dispersal buffer, then aggregate defined concentrations of cells in defined medium in rotational culture. These methods are described in more detail in International Application PCT/US2008/082356, entitled STEM CELL AGGREGATE SUSPENSION COMPOSITIONS AND METHODS OF DIFFERENTIATION THEREOF, filed Nov. 4, 2008; and International Application PCT/US2007/062755, entitled COMPOSITIONS AND METHODS FOR CULTURING DI[…], filed Feb. 23, 2007, which are herein incorporated by reference in their entireties. Self-aggregation of hES cells occurs in the absence of added extracellular matrix (ECM) or ECM-like proteins and is presumed to be driven in part by homotypic interaction of E-cadherin. The aggregates that are formed expand over 3-4 days and are kept apart from each other by the shear forces generated by rotational culture. Cells are blocked from differentiating by the self-renewal signaling provided by the defined medium and retain their pluripotent characteristics: marker expression, normal karyotype, and differentiation potential in vitro and in teratomas. […]

[2] = test system: hES cells (e.g., BGO2 cells); assay: Low-density colony forming / colony counting assay (AP+ colonies); format: cell-based, human
Description: FIG. 2. Low density plating assay of hES cells (e.g., BGO2 cells). 10000 cells/well were plated in 6-well trays in StemPro® hESC SFM (Life Technologies) medium and stained with alkaline phosphatase (AP+) after 7 days. Y (Y27632), ACh (acetylcholine), NMDA (N-methyl-D-aspartic acid), NE ((−)-Norepinephrine), NE.Bit ((±)-Norepinephrine (+)-bitartrate). Compounds were added at 10 or 50 μM as indicated.
FIG. 3. Low density plating assay of hES cells. (A) 200-10000 cells/well were plated in […] trays in StemPro® hESC SFM medium, or StemPro® hESC SFM +50 μM NE, or +50 μM ACh, and stained with alkaline phosphatase (AP+) after 8 days. […] ACh (acetylcholine), NE ((±)-Norepinephrine (+)-bitartrate). […]
About 10^4 hES cells/well were plated in 6-well trays in StemPro® hESC SFM, in the presence of different compounds and cultured for about 7 days. The cultures were then fixed, stained for alkaline phosphatase activity and colonies were counted (FIG. 2). […] The (±)-Norepinephrine (+)-bitartrate salt was used for all subsequent experiments involving norepinephrine (NE) unless specifically described otherwise.
A similar colony counting experiment was performed using a range of cell densities (FIG. 3). […] See Robins and Schulz 2009, supra. […]

Row | Compound | serial passages maintained in suspension with undifferentiated morphology [1] | aggregate size on day 4 ([1]; suspension, StemPro hESC SFM HIA, neurotransmitters 50 μM) | colonies detected compared to StemPro hESC SFM medium alone ([2]; 50 μM, 200-10000 cells/well, 8 days) | fewest plated cells per well at which colonies were observed ([2]; 50 μM, 8 days) | support of colony formation at low density ([2]; 10^4 cells/well, StemPro hESC SFM, 7 days, compounds at 10 or 50 μM)
1 | NCC(O)c1ccc(O)c(O)c1 (racemic) [NE, (±)-Norepinephrine (+)-bitartrate] | 12 serial passages | smaller aggregates | More than four times as many colonies | 1000 plated cells | supported elevated colony formation
2 | CC(=O)OCC[N+](C)(C)C [ACh, acetylcholine] | 12 serial passages |  |  | 500 plated cells | 
